Earlier results as cited in patent publication US20240192198A1, “BIOMIMETIC LIPOSOMES AND METHODS OF MAKING AND USING THE SAME” (Worcester Polytechnic Institute, priority 2022, published 2024).

Conditions: hydrophobicity; obtained from the National Library of Medicine, PubChem Database

Nc1nc2ncc(CNc3ccc(C(=O)N[C@@H](CCC(=O)O)C(=O)O)cc3)nc2c(=O)[nH]1 [Folic acid]
logP: −2.5
